Experimental data reported in US20100298141A1, “SUBSTITUTED PYRIDINE N-OXIDE HERBICIDES” (E. I. DU PONT DE NEMOURS AND COMPANY, priority 2007, published 2010).

Tests used:
eastern black nightshade = test: Test C pre-/postemergence test; assay type: in vivo, Solanum ptycanthum
Text: Seeds of plant species selected from blackgrass (Alopecurus myosuroides), downy brome (Bromus tectorum), green foxtail (Setaria viridis), Italian ryegrass (Lolium multiflorum), wheat (Triticum aestivum), wild oat (Avena fatua), catchweed bedstraw (Galium aparine), Russian thistle (Salsola kali), […] (Cynodon dactylon), Surinam grass (Brachiaria decumbens), cocklebur (Xanthium strumarium), corn (Zea mays), crabgrass (Digitaria sanguinalis), woolly cupgrass (Eriochloa villosa), giant foxtail (Setaria faberii), Goosegrass (Eleusin indica), johnsongrass (Sorghum halepense), kochia (Kochia scoparia), lambsquarters (Chenopodium album), morningglory (Ipomoea coccinea), eastern black nightshade (Solanum ptycanthum), yellow nutsedge (Cyperus esculentus), pigweed (Amaranthus retroflexus), common ragweed (Ambrosia elation), soybean (Glycine max), common (oilseed) sunflower (Helianthus annuus), and velvetleaf (Abutilon theophrasti) were planted and treated preemergence with test chemicals formulated in a non-phytotoxic solvent mixture which included a surfactant. At the same time, plants selected from these crop and weed species and also winter barley (Hordeum vulgare), canarygrass (Phalaris minor), and chickweed (Stellaria media) were treated with postemergence applications of some of the test chemicals formulated in the same manner. Plants ranged in height from 2 to 18 cm (1- to 4-leaf stage) for postemergence treatments. […] At time of treatment, test pots were flooded to 3 cm above the soil surface, treated by application of test compounds directly to the paddy water, and then maintained at that water depth for the duration of the test. […] A dash (-) response means no test result.

corn [1] = test: Test A pre-/postemergence greenhouse test; assay type: in vivo, Zea mays; conditions: for Corn plant response rating: 0 to 100 scale
Method in brief: (§1)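 Visual injury ratings against untreated controls, taken roughly ten days after treatment in greenhouse. Plants were sprayed postemergence at one- to two-leaf stage (2–10 cm tall); at the same time, seeded loam/sand soil received a directed preemergence spray. Formulation: non-phytotoxic solvent mixture with surfactant.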

bermudagrass = test: Test C pre-/postemergence test; assay type: in vivo, Cynodon dactylon
Method in brief: (§2)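 Test chemicals were formulated with surfactant in a non-phytotoxic solvent and sprayed both on freshly planted seeds (preemergence) and on 1- to 4-leaf plants of 2–18 cm (postemergence). Flooded-paddy pots received compound directly into 3 cm of standing water, maintained for the test.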

[2] = system: common (oilseed) sunflower; test: Test C pre-/postemergence test; assay type: in vivo, Helianthus annuus
Method in brief: as §2

morningglory [3] = test: Test C pre-/postemergence test; assay type: in vivo, Ipomoea coccinea
Method in brief: as §2

redroot pigweed = test: Test A pre-/postemergence greenhouse test; assay type: in vivo, Amaranthus retroflexus; conditions: for Pigweed plant response rating: 0 to 100 scale
Method in brief: as §1

morningglory [4] = test: Test A pre-/postemergence greenhouse test; assay type: in vivo, Ipomoea spp.; conditions: for Morningglory plant response rating: 0 to 100 scale
Method in brief: as §1

cocklebur = test: Test C pre-/postemergence test; assay type: in vivo, Xanthium strumarium
Method in brief: as §2

Italian ryegrass = test: Test C pre-/postemergence test; assay type: in vivo, Lolium multiflorum
Method in brief: as §2

corn [5] = test: Test C pre-/postemergence test; assay type: in vivo, Zea mays
Method in brief: as §2

wild oat = test: Test C pre-/postemergence test; assay type: in vivo, Avena fatua
Method in brief: as §2

giant foxtail = test: Test C pre-/postemergence test; assay type: in vivo, Setaria faberii
Method in brief: as §2

johnsongrass = test: Test C pre-/postemergence test; assay type: in vivo, Sorghum halepense
Method in brief: as §2

wheat = test: Test C pre-/postemergence test; assay type: in vivo, Triticum aestivum
Method in brief: as §2

yellow nutsedge = test: Test C pre-/postemergence test; assay type: in vivo, Cyperus esculentus
Method in brief: as §2

rice = test: Test C flooded paddy test; assay type: in vivo, Oryza sativa; conditions: Flood
Method in brief: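 Flooded 3 cm over soil; compound into paddy water; depth kept constant. Greenhouse 13–15 d.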

[6] = 62 g ai/ha, Preemergence, scale 0 to 100
[7] = 125 g ai/ha, preemergence, scale 0 (no effect) to 100 (complete control)
[8] = Preemergence, 31 g ai/ha, scale 0 to 100 (0 no effect, 100 complete control)
[9] = preemergence, 250 g ai/ha, scale 0 (no effect) to 100 (complete control)
[10] = Postemergence, 125 g ai/ha, 0 is no effect, 100 is complete control
[11] = Postemergence, 500 g ai/ha, 0 is no effect, 100 is complete control
[12] = Preemergence, 125 g ai/ha, 0 no effect, 100 complete control
[13] = Preemergence, 500 g ai/ha, 0 to 100 scale where 0 is no effect and 100 is complete control

Cn1nc(C(F)(F)F)c(C[S+]([O-])c2cc(Br)cc[n+]2[O-])c1Cl (racemic) [Compound 35]
25: Wheat plant response rating (wheat; [6]) | Wheat plant response rating (wheat; [7]) | Wheat plant response rating (wheat; [9])
40: Morningglory plant response rating (morningglory [4]; [10]) | Plant response rating, Foxtail, Giant (giant foxtail; [8])
70: Morningglory plant response rating (morningglory [4]; [11])
45: Oat, Wild plant response rating (wild oat; [6])
65: Corn plant response rating (corn [5]; [9])
80: Morningglory plant response rating (morningglory [3]; [7]) | Pigweed plant response rating (redroot pigweed; [11]) | Plant response rating, Morningglory (morningglory [4]; [13]) | Oat, Wild plant response rating (wild oat; [7])
98: Foxtail, Giant plant response rating (giant foxtail; [9])
20: Ryegrass, Italian plant response rating (Italian ryegrass; [6]) | Ryegrass, Italian plant response rating (Italian ryegrass; [7]) | Ryegrass, Italian plant response rating (Italian ryegrass; [9]) | Plant response rating, Rice (rice; 250 g ai/ha, scale 0 to 100, 0 no effect, 100 complete control, 13 to 15 days)
10: Plant response rating, Ryegrass, Italian (Italian ryegrass; [8]) | Corn plant response rating (corn [5]; [6]) | Plant response rating, Corn (corn [5]; [8]) | Plant response rating, Oat, Wild (wild oat; [8])
50: Morningglory plant response rating (morningglory [4]; [12]) | Plant response rating, Johnsongrass (johnsongrass; [8])
85: Morningglory plant response rating (morningglory [3]; [9])
100: Nightshade plant response rating (eastern black nightshade; [6]) | Nightshade plant response rating (eastern black nightshade; [7]) | Nightshade plant response rating (eastern black nightshade; [9]) | Bermudagrass plant response rating (bermudagrass; 62 g ai/ha, Preemergence, scale 0 to 100 (0 no effect, 100 complete control)) | Bermudagrass plant response rating (bermudagrass; [7]) | Bermudagrass plant response rating (bermudagrass; [9]) | Pigweed plant response rating (redroot pigweed; [12]) | Plant response rating, Pigweed (redroot pigweed; [13]) | Johnsongrass plant response rating (johnsongrass; [7]) | Johnsongrass plant response rating (johnsongrass; [9]) | Nutsedge, Yellow plant response rating (yellow nutsedge; [9])
0: Plant response rating, Nightshade (eastern black nightshade; [8]) | Corn plant response rating (corn [1]; [10]) | Corn plant response rating (corn [1]; [12]) | Plant response rating, Corn (corn [1]; [13]) | Sunflower plant response rating [2, 6] | Sunflower plant response rating [2, 7] | Plant response rating, Sunflower [2, 8] | Morningglory plant response rating (morningglory [3]; [6]) | Plant response rating, Morningglory (morningglory [3]; [8]) | Cocklebur plant response rating (cocklebur; [6]) | Cocklebur plant response rating (cocklebur; [7]) | Cocklebur plant response rating (cocklebur; [9]) | Plant response rating, Wheat (wheat; [8]) | Plant response rating, Nutsedge, Yellow (yellow nutsedge; [8]) | Plant response rating, Rice (rice; 31 g ai/ha, scale 0 to 100 (0 no effect, 100 complete control)) | Plant response rating, Rice (rice; 62 g ai/ha, scale 0 to 100, 0 no effect, 100 complete control, 13 to 15 days) | Plant response rating, Rice (rice; 125 g ai/ha, scale 0 to 100, 0 no effect, 100 complete control, 13 to 15 days)
30: Corn plant response rating (corn [1]; [11]) | Sunflower plant response rating [2, 9] | Corn plant response rating (corn [5]; [7])
75: Foxtail, Giant plant response rating (giant foxtail; [7])
90: Plant response rating, Bermudagrass (bermudagrass; [8]) | Oat, Wild plant response rating (wild oat; [9]) | Johnsongrass plant response rating (johnsongrass; [6]) | Nutsedge, Yellow plant response rating (yellow nutsedge; [7])
60: Pigweed plant response rating (redroot pigweed; [10]) | Foxtail, Giant plant response rating (giant foxtail; [6]) | Nutsedge, Yellow plant response rating (yellow nutsedge; [6])
